A short description of this data set: gradient 5% acetonitrile 3 min, to 50% in 2 min, to 85% in 15 min, held 3 min, 100 µL/min. Particulars: column: Zorbax Extend-C18 2.1 x 50 mm; eluents: water / acetonitrile, 0.1% formic acid. An outline of the steps: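 Each retention time is based on an adduct peak selected computationally and verified by manual inspection. Measurements used HPLC–quadrupole time-of-flight mass spectrometry in positive and negative ionization mode on mixtures of ~100 pure standards. Chromatography ran on a Zorbax Extend-C18 column (2.1 × 50 mm, 1.8 μm) at 100 μL/min with water and acetonitrile, each containing 0.1% formic acid, and dead and dwell volumes of 40 μL and 900 μL.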
Take `CCNC(=O)CCc1nc2ccccc2n(CC(=O)Nc2ccccc2OCC)c1=O`: the RP-LC retention time came out at 775 s.

In turn, `Cc1noc2nc(CCC(=O)NCCCN3CCc4ccccc4C3)nc(N3CCCCCC3)c12` returned an RP-LC retention time of 695 s.

Molecule `Cc1nc(-c2ccncc2)nc2c1CCC(=O)N2Cc1cccs1` displayed an RP-LC retention time of 723 s.

Regarding `COc1ccc(S(=O)(=O)N2CCCC(C(=O)NCC3CCCO3)C2)cc1Cl` (centres undefined), the RP-LC retention time came out at 785 s.

`O=C(COc1ccccc1)N1CCN(C(=O)c2nnn3c2COC(c2ccccc2)C3)CC1` (centres undefined) registered an RP-LC retention time of 850 s.

The molecule `COc1ccc(-c2nc(CN(c3ccccc3)S(=O)(=O)c3cccs3)c(C)o2)cc1` registered an RP-LC retention time of 1130 s.

On to `CCN1CCCn2nc(C3CCN(S(=O)(=O)c4cnc[nH]4)CC3)cc2C1=O`, for which the RP-LC retention time was found to be 592 s.

Take `COCc1noc([C@@H]2CN(Cc3cn(C)c4ccccc34)C[C@H]2CO)n1`: the RP-LC retention time amounted to 616 s.

Molecule `Cc1ccccc1CNC(=O)c1c(C)sc2ccn(CC(C)C)c(=O)c12` registered an RP-LC retention time of 1010 s.

As for `O=C(Nc1ccccc1F)N1CCCC(Cn2c(C3CC3)nc3cccnc32)C1` (centres undefined), the RP-LC retention time amounted to 656 s.

`O=C(CN1CCC(c2nc(-c3ccccc3)no2)CC1)Nc1ccccc1Br`: the RP-LC retention time was 795 s.

`CCOC(=O)c1cc(C2CC2)nc2c1c(=O)n(Cc1ccc(C)cc1)c(=O)n2C` had an RP-LC retention time of 1260 s.

For `CC(C)CN1CCn2cc(C(=O)NC(C)c3ccccc3)nc2C1` (centres undefined), the RP-LC retention time is 613 s.

In turn, `COCC(=O)Nc1ccc2nc(-c3ccc(F)cc3)cc(OCC(=O)OC)c2c1` displayed an RP-LC retention time of 682 s.

In turn, `CCCNC(=O)C1CCN(c2ccc(SCC(=O)Nc3cc(C)ccc3C)nn2)CC1` showed an RP-LC retention time of 656 s.

Turning to `Cc1ccc(CNC(=O)C2(C)CCCN(C(=O)Nc3cccc(F)c3)C2)cc1` (centres undefined), the RP-LC retention time amounted to 967 s.

`Cc1cccc(C)c1NC(=O)Cn1nc(N2CCOCC2)c2ccccc2c1=O` registered an RP-LC retention time of 744 s.

Molecule `CCN(Cc1ccncc1)C(=O)C(CO)c1ccccc1` (centres undefined) had an RP-LC retention time of 619 s.

Consider `CN(CCc1noc(-c2ccc(C(=O)NCCCN3CCCC3)cc2)n1)C(=O)c1ccc(F)cc1`, for which the RP-LC retention time was determined as 623 s.

The molecule `CCn1cc(-c2ccc(Cl)cc2)cc1C(=O)NCc1cccnc1` registered an RP-LC retention time of 738 s.

On to `CN1c2ccc(F)cc2C(=O)NC12CCN(C(=O)c1ccccc1)CC2`, for which the RP-LC retention time stood at 726 s.

For the molecule `COc1ccc(-c2nc(-c3cn(Cc4ccccc4)nn3)no2)cc1OC`, the RP-LC retention time stood at 892 s.

Consider `COc1ccc(CC(=O)N2CCC3(C2)C(=O)Nc2ccc(OC)cc23)cc1` (centres undefined), for which the RP-LC retention time came to 709 s.

The molecule `O=C(Nc1ccccc1Br)c1c(O)c2cccc3c2n(c1=O)CC3` gave an RP-LC retention time of 1240 s.

Turning to `CCc1csc(-c2cn(CC(=O)NCc3cccc(C(F)(F)F)c3)cn2)n1`, the RP-LC retention time came out at 768 s.

For the molecule `Cc1ccc(N2CCC(NC(=O)Nc3ccc4c(c3)OCCO4)C2=O)cc1C` (centres undefined), the RP-LC retention time came out at 798 s.

Regarding `CC(NC(=O)c1cc(-c2ccc(F)cc2)cn1C)c1ccccn1` (centres undefined), the RP-LC retention time came out at 722 s.

The molecule `CN(C1CCc2nn(CC3CC3)c(=O)n2CC1)S(=O)(=O)c1cccnc1` (centres undefined) showed an RP-LC retention time of 659 s.

As for `c1cc(-c2noc(C3CC3)n2)cc(N2CCOCC2)n1`, the RP-LC retention time was determined as 695 s.

`Cc1ccc(-c2nnc(Cc3nc(-c4ccc(Cl)cc4)no3)o2)cc1F` displayed an RP-LC retention time of 1190 s.

In turn, `CCOc1cc(C(=O)Nc2c(-c3ccc(OC)cc3)nc3cc(C)ccn23)cc(OCC)c1OCC` showed an RP-LC retention time of 803 s.

Regarding `Cc1ncn(CC(=O)Nc2ccccc2F)c(=O)c1C`, the RP-LC retention time was 628 s.

In the case of `FC(F)(F)c1cccc(-c2cncc(N3CCN(c4ccccn4)CC3)n2)c1`, the RP-LC retention time was 740 s.

In turn, `COc1ccc(CCc2nc3nccc(-c4ccc(F)cc4)n3n2)cc1OC` had an RP-LC retention time of 865 s.

With `COc1cccc(CNC(=O)N2CCC(CC(=O)NCc3ccccc3)CC2)c1`, the RP-LC retention time was determined as 736 s.

`Cn1c(C2CCN(C(=O)Nc3cccc(Cl)c3F)CC2)cc(=O)n2nccc12` yielded an RP-LC retention time of 685 s.

Regarding `Cc1sc(-c2cc(C(F)(F)F)on2)cc1S(=O)(=O)NCc1ccc(F)cc1`, the RP-LC retention time came out at 1160 s.

As for `O=C(NCc1ccccc1)c1nc(-c2ccncc2)cs1`, the RP-LC retention time amounted to 575 s.

The molecule `COc1ccc(NC(=O)N2CCC(N3C[C@H]4C[C@H](C3)[C@H]3CCCC(=O)N3C4)CC2)cc1` had an RP-LC retention time of 573 s.

Take `COC1CN(C2CCN(C(=O)c3cccs3)CC2)C12CCOCC2` (centres undefined): the RP-LC retention time was 572 s.

For `CC1CCN(C(=O)c2ccc(OCC3CCCN(C(=O)C4CCCO4)C3)cc2)CC1` (centres undefined), the RP-LC retention time turned out to be 829 s.

On to `Cc1cc(C)cc(NC(=O)C2CCN(S(=O)(=O)c3ccc4[nH]c(=O)sc4c3)CC2)c1`, for which the RP-LC retention time came out at 851 s.

Consider `O=C([C@@H]1C[C@H](F)CN1S(=O)(=O)c1ccc(Br)s1)N1CCCCC1`, for which the RP-LC retention time is 839 s.

In turn, `COc1cc(OC)cc(N2C(=O)C3N=NN(Cc4nc(-c5ccccc5)no4)C3C2=O)c1` (centres undefined) yielded an RP-LC retention time of 959 s.

`CN(C)C(=O)c1cc2c(s1)CCC(C(=O)NC1CCCCC1)C2` (centres undefined): the RP-LC retention time turned out to be 748 s.

`CC12C(=O)OC(=O)C1(C)C1CCC2O1` (centres undefined) gave an RP-LC retention time of 813 s.

As for `O=S(=O)(NCCc1noc(-c2ccccc2)n1)c1ccc(Cl)cc1`, the RP-LC retention time stood at 980 s.

`Cc1ccc(S(=O)(=O)N2CCCCC2CCNC(=O)c2cccn(C)c2=O)cc1` (centres undefined) registered an RP-LC retention time of 760 s.

Turning to `C=CCN1C(=O)COc2ccc(-c3nc(NC(=O)c4ccc(Cl)cc4)sc3C)cc21`, the RP-LC retention time was determined as 1140 s.

As to `Cc1ccc(CN2CCN(CC(=O)Nc3ccc4c(c3)OCCO4)C(=O)C2=O)cc1`, the RP-LC retention time came to 733 s.

The molecule `Cc1cccc(-n2c(=O)c3c(cc(C)n3C)n(CC(=O)Nc3ccc(Cl)cc3)c2=O)c1` yielded an RP-LC retention time of 923 s.

Molecule `O=C(c1ccsc1)N1CCC2(CC1)CC(N1CCOCC1)CCO2` (centres undefined) came in with an RP-LC retention time of 557 s.

`FC1(c2nc(Cc3ccccc3)no2)CCN(Cc2ccsc2)CC1` came in with an RP-LC retention time of 708 s.

For `COc1ccc(NC(=O)C2CCc3nc(N4CCC(C)CC4)ncc3C2)c(C)c1` (centres undefined), the RP-LC retention time turned out to be 747 s.

Regarding `COc1ccc(-c2cc(C(N)=O)c(C)n2C)cc1`, the RP-LC retention time turned out to be 729 s.

`CCOC(=O)c1[nH]c(C)c(C(=O)N2CCC(CC(=O)NC(C)C)CC2)c1C` had an RP-LC retention time of 643 s.

In turn, `O=C(Cn1c(=O)c2cc(-c3cccs3)nn2c2ncccc21)NCc1ccccc1` gave an RP-LC retention time of 830 s.

Regarding `CCc1noc(NC(C)=O)c1-c1ccc(C)c(S(=O)(=O)Nc2c(C)cc(C)cc2C)c1`, the RP-LC retention time came out at 904 s.

With `CCOC(=O)Cn1nc2c(-c3nc(-c4ccc(Cl)cc4)no3)cccn2c1=O`, the RP-LC retention time was found to be 958 s.

`Cc1cc(NC(=O)C2CCN(S(C)(=O)=O)c3ccccc3O2)ccc1Br` (centres undefined) showed an RP-LC retention time of 1040 s.

`CCOC(=O)C1=C(CN(C)Cc2ccccc2)NC(=O)NC1c1ccc(Cl)cc1` (centres undefined): the RP-LC retention time was 698 s.

`Fc1ccc(-c2noc(Cc3nnc(-c4cccc(Br)c4)o3)n2)cc1` showed an RP-LC retention time of 1120 s.

The molecule `CC1CCN(C(=O)C2=CN(c3ccccc3)c3cc(Cl)ccc3S2(=O)=O)CC1` had an RP-LC retention time of 999 s.

For `CCN(CC)C(=O)c1ccc2oc(CN3CCN(C(=O)NC4CCCC4)CC3)nc2c1`, the RP-LC retention time came out at 630 s.

The molecule `COc1ccc(NC(=O)Cn2ccnc2-c2ccnc(N3CCOCC3)c2)cc1Cl` registered an RP-LC retention time of 631 s.

The molecule `Cc1cccc(NC(=O)C2C(=O)NC3(C)CC2c2ccccc2O3)c1` (centres undefined) gave an RP-LC retention time of 920 s.

In turn, `CC(OC(=O)Nc1cccc(Cl)c1)C(=O)O` (centres undefined) had an RP-LC retention time of 809 s.

For the molecule `O=C(NCC1CCCCC1)c1ccc(-c2nc3cccnc3n2C2CCCCC2)cc1`, the RP-LC retention time was 1130 s.

As to `COc1ccc(CN(Cc2ccccc2)Cc2cc(=O)n3cc(C)ccc3n2)cc1`, the RP-LC retention time was 696 s.

`CC(C)n1nccc1-c1nnc(NC(=O)C2CC(=O)N(c3ccc(F)cc3)C2)o1` (centres undefined) yielded an RP-LC retention time of 685 s.

With `COc1ccc(Cl)cc1NC(=O)c1c(O)c2cccnc2n(-c2ccc(F)cc2)c1=O`, the RP-LC retention time was 1280 s.

In turn, `O=C(c1ccc(Cl)s1)N1CCCn2nc(-c3ccncc3)cc2C1` displayed an RP-LC retention time of 623 s.

Regarding `CCc1ccc(CNC(=O)c2c(C)oc3nc(C)nc(N4CCCC4)c23)cc1`, the RP-LC retention time came out at 795 s.

On to `O=C(CCC(=O)N1CCOc2ccccc21)Nc1c(F)c(F)c(F)c(F)c1F`, for which the RP-LC retention time is 912 s.

Molecule `COCC(=O)NC1CCN(c2ccc(C)c(C)c2)C1=O` (centres undefined) displayed an RP-LC retention time of 705 s.

On to `O=C(Nc1nc(-c2ccccc2)cs1)c1c(-c2ccc(F)cc2)nc2n1CCS2(=O)=O`, for which the RP-LC retention time was 1020 s.

`CCCNC(=O)CC1CCN(C(=O)c2c(C)[nH]c(C(=O)OCC)c2C)CC1` yielded an RP-LC retention time of 653 s.

`CCc1nnc2nc(N3CCN(C(=O)c4nccc5ccccc45)CC3)cc(C)n12` yielded an RP-LC retention time of 559 s.

`CCNC(=O)c1cn(-c2ccc(SCC(=O)Nc3ccc4c(c3)OCCO4)nn2)cn1` displayed an RP-LC retention time of 637 s.

The values are drawn from the METLIN SMRT retention time set (Domingo-Almenara et al. 2019).
